Numbers after ± are expanded uncertainties.
What was measured:
[1] = refractive index (Na D-line) (dimensionless); settings: 101.33 kPa, Liquid
[2] = Liquid; for mass density: 101.33 kPa

Structure (SMILES) | refractive index ([1]; 293.15 K) | mass density ([2]; 293.15 K) [kg/m3] | also measured
ClC(Cl)C(Cl)Cl [1,1,2,2-tetrachloroethane] | 1.494 ± 0.005 | 1593 ± 3.6 | vapor or sublimation pressure ([2]; 417.15 K): 95.23 ± 5 kPa
ClCCCl [1,2-dichloroethane] | 1.4196 ± 0.005 | 1252.9 ± 2.7 | vapor or sublimation pressure ([2]; 355.05 K): 95.23 ± 5 kPa
Cc1ccccc1C [1,2-dimethylbenzene] |  | 880.1 ± 1.9 | vapor or sublimation pressure ([2]; 415.35 K): 95.23 ± 5 kPa
Cc1cccc(C)c1 [1,3-dimethylbenzene] | 1.4972 ± 0.005 | 864.4 ± 1.7 | vapor or sublimation pressure ([2]; 410.15 K): 95.23 ± 5 kPa
Cc1ccc(C)cc1 [1,4-dimethylbenzene] | 1.4858 ± 0.005 | 861 ± 1.7 | vapor or sublimation pressure ([2]; 409.15 K): 95.23 ± 5 kPa
Cc1ccc(O)cc1 [4-methylphenol] |  |  | refractive index ([1]; 298.15 K): 1.5391 ± 0.005; vapor or sublimation pressure ([2]; 472.85 K): 95.23 ± 5 kPa
ClC(Cl)=C(Cl)Cl [tetrachloroethene] | 1.505 ± 0.005 | 1625 ± 3.7 | vapor or sublimation pressure ([2]; 392.05 K): 95.23 ± 5 kPa
ClC=C(Cl)Cl [trichloroethene] |  |  | refractive index ([1]; 298.15 K): 1.4782 ± 0.005; mass density ([2]; 298.15 K): 1464 ± 3.3 kg/m3; vapor or sublimation pressure ([2]; 358.35 K): 95.23 ± 5 kPa
